Reference: patent publication US8193191B2, “Urotensin II receptor antagonists” (Janssen Pharmaceutica N.V., priority 2006, dated 2012)
Like-named read-outs stand apart in the source and are kept apart here.

Legend:
[1] = biological target: T1, rat GPR14 (U-II receptor) (Rattus norvegicus, UniProt P49684); assay: Rat UII Calcium Mobilization FLIPR Assay; format: cell-based; conditions: average value for the compound tested; read-out: Rat UII FLIPR Average IC50
T1 construct: expressed in transfected cells
T1 sequence (P49684 1-386): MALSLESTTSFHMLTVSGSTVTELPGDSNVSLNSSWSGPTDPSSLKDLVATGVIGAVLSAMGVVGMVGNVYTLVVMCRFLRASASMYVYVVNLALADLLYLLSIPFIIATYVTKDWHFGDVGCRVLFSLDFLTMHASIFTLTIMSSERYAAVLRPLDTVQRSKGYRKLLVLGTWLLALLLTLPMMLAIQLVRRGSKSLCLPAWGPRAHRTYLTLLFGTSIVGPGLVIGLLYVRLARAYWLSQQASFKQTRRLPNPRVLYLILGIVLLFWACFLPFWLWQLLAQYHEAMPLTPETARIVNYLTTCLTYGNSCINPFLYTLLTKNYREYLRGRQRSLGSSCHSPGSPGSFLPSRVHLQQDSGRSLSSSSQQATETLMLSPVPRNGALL
How it was run: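 CHO cells stably expressing rat U-II receptor, seeded 24 h before assay, were loaded with FLIPR calcium dye in HBSS/20 mM HEPES/0.1% BSA/2.5 mM probenecid, pH 7.4, for 1 h at 37° C. Calcium mobilization then read by FLIPR at 23° C.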

[2] = biological target: T2, Human UII receptor, 6D9 human rhabdomyosarcoma cells (Homo sapiens, UniProt Q9UKP6); assay: Human UII Calcium Mobilization Assay; format: cell-based; conditions: average value, FLIPR TETRA, read-out: Human UII Ca^+ Mobilization Average IC50
T2 construct: 6D9: isolated by dilution subcloning of RMS13 cells, ATCC® Number: CRL-2061; host or cells: 6D9 human rhabdomyosarcoma cells (subclone of RMS13)
T2 sequence (Q9UKP6 1-389): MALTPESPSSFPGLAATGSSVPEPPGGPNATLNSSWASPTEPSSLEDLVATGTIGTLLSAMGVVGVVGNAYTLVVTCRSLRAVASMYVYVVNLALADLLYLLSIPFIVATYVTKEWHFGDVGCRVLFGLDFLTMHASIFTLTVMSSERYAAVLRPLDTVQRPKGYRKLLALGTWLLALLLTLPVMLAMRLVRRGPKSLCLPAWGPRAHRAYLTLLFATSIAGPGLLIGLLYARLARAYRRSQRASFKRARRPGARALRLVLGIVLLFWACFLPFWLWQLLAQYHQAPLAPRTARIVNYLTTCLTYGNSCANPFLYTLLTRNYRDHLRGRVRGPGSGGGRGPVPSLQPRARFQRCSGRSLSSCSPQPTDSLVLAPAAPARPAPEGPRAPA
How it was run: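 6D9 rhabdomyosarcoma cells loaded 45 min at 37° C with calcium dye (1.25 mM probenecid, 0.01% FBS, HBSS/20 mM HEPES). Antagonist and U-II agonist added at room temperature; FLIPR fluorescence read over 4 min; EC50/IC50 fitted. DMSO ≤0.1% final.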

[3] = biological target: T3, endogenous human UII receptor (Homo sapiens, UniProt Q9UKP6); assay: Human Radioligand Binding Assay ((^125I)-U-II binding to human skeletal muscle myoblasts)
T3 sequence (Q9UKP6 1-389): T2 sequence (Q9UKP6 1-389)

| SMILES | IC50 [1] [nM] | IC50 [2] [nM] | Ki [3] [nM] | Ki ([3]; read-out: Human UII Average Binding Ki, average value, (^125I)-U-II binding to human skeletal muscle myoblasts (HSMM), 25° C., 3 h) [nM] |
| --- | --- | --- | --- | --- |
| COc1ccc(C(CCCNS(=O)(=O)c2ccsc2)N2C(=O)c3cccc(N4CCN([C@H](C)c5ccccc5)CC4)c3C2=O)cc1OC (stereo partly drawn) [Cpd 105, thiophene-3-sulfonic acid (4-(3,4-dimethoxy-phenyl)-4-{1,3-dioxo-4-[4-(1R)-(1-phenyl-ethyl)-piperazin-1-yl]-1,3-dihydro-isoindol-2-yl}-butyl)-amide] | 68 | 110 | 65 |  |
| COc1ccc([C@@H](CCCNS(=O)(=O)c2cn(C)c(C)n2)N2C(=O)c3cccc(N4CCN([C@H](C)c5ccccc5)CC4)c3C2=O)cc1OC [Cpd 140, (R)-1,2-dimethyl-1H-imidazole-4-sulfonic acid (4-(3,4-dimethoxy-phenyl)-4-{1,3-dioxo-4-[4-(1R)-(1-phenyl-ethyl)-piperazin-1-yl]-1,3-dihydro-isoindol-2-yl}-butyl)-amide] | 14 | 220 |  | 16 |
| COc1ccc(C(CCCNS(N)(=O)=O)N2C(=O)c3cccc(N4CCN([C@H](C)c5ccccc5)CC4)c3C2=O)cc1OC (stereo partly drawn) [Cpd 122, N′-[(4-(3,4-dimethoxy-phenyl)-4-{1,3-dioxo-4-[4-(1R)-(1-phenyl-ethyl)-piperazin-1-yl]-1,3-dihydro-isoindol-2-yl}-butyl)]-sulfamide] | 12 | 500 | 120 |  |
| COc1ccc([C@@H](CCCNC(=O)c2cccn2C)N2C(=O)c3cccc(N4CCN([C@H](C)c5ccccc5)CC4)c3C2=O)cc1OC [Cpd 147, (R)-1-methyl-1H-pyrrole-2-carboxylic acid (4-(3,4-dimethoxy-phenyl)-4-{1,3-dioxo-4-[4-(1R)-(1-phenyl-ethyl)-piperazin-1-yl]-1,3-dihydro-isoindol-2-yl}-butyl)-amide] | 32 | 2100 | 160 |  |
| COc1ccc(C(CNC(=O)Cc2ccncc2)N2C(=O)c3cccc(N4CCN([C@H](C)c5ccccc5)CC4)c3C2=O)cc1OC (stereo partly drawn) [Cpd 102, N-(2-(3,4-dimethoxy-phenyl)-2-{1,3-dioxo-4-[4-(1R)-(1-phenyl-ethyl)-piperazin-1-yl]-1,3-dihydro-isoindol-2-yl}-ethyl)-2-pyridin-4-yl-acetamide] | 49 | 520 | 99 |  |

More lines, main results first:

| IC50 [1] [nM] | IC50 [2] [nM] | Ki [3] [nM] | SMILES | Ki ([3]; read-out: Human UII Average Binding Ki, average value, (^125I)-U-II binding to human skeletal muscle myoblasts (HSMM), 25° C., 3 h) [nM] |
| --- | --- | --- | --- | --- |
| 120 | 960 | 150 | CCN1CCN(c2cccc3c2C(=O)N([C@H](CCCNC(=O)C2CCC2)c2ccc(OC)c(OC)c2)C3=O)CC1 [Cpd 202, (R)-cyclobutanecarboxylic acid {4-(3,4-dimethoxy-phenyl)-4-[4-(4-ethyl-piperazin-1-yl)-1,3-dioxo-1,3-dihydro-isoindol-2-yl]-butyl}-amide] |  |
| 16 | 330 | 99 | COc1ccc([C@@H](CCCNC(=O)c2conc2C)N2C(=O)c3cccc(N4CCN([C@H](C)c5ccccc5)CC4)c3C2=O)cc1OC [Cpd 158, (R)-3-methyl-isoxazole-4-carboxylic acid (4-(3,4-dimethoxy-phenyl)-4-{1,3-dioxo-4-[4-(1R)-(1-phenyl-ethyl)-piperazin-1-yl]-1,3-dihydro-isoindol-2-yl}-butyl)-amide] |  |
| 6.1 | 410 | 26 | COCC(=O)NCCC[C@H](c1ccc(OC)c(OC)c1)N1C(=O)c2cccc(N3CCN([C@H](C)c4ccccc4)CC3)c2C1=O [Cpd 175, (R)-N-(4-(3,4-dimethoxy-phenyl)-4-{1,3-dioxo-4-[4-(1R)-(1-phenyl-ethyl)-piperazin-1-yl]-1,3-dihydro-isoindol-2-yl}-butyl)-2-methoxy-acetamide] |  |
| 9.3 | 160 | 27 | COc1ccc([C@@H](CCCNC(=O)C(C#N)C(C)=O)N2C(=O)c3cccc(N4CCN([C@H](C)c5ccccc5)CC4)c3C2=O)cc1OC (stereo partly drawn) [Cpd 199, (R)-2-cyano-N-(4-(3,4-dimethoxy-phenyl)-4-{1,3-dioxo-4-[4-(1R)-(1-phenyl-ethyl)-piperazin-1-yl]-1,3-dihydro-isoindol-2-yl}-butyl)-3-oxo-butyramide] |  |
